The OPERA property sets (Mansouri et al. 2018)

Structure (SMILES)	logP
CC(C)OC(=O)C1(S(=O)(=O)c2ccc([N+](=O)[O-])cc2)CCC1	2.36
CC(C)OC(=O)C1(S(=O)(=O)c2ccc([N+](=O)[O-])cc2)CC1	2.05
CCOC(=O)C1(S(=O)(=O)c2ccc(C)cc2)CC1	2.23
CC(C)(C)OC(=O)C1(S(=O)(=O)c2ccc(Cl)cc2)CC1	2.68
CC(C)OC(=O)C1(S(=O)(=O)c2ccc(Cl)cc2)CC1	2.64
CC(C)OC(=O)C1(S(=O)(=O)c2ccc([N+](=O)[O-])cc2)CCCCCC1	3.41
Cc1ccc(S(=O)(=O)C2(C(=O)OC(C)C)CCC2)cc1	2.78
Cc1ccc(S(=O)(=O)C2(C(=O)OC(C)C)CC2)cc1	2.52
CCOC(=O)C1(S(=O)(=O)c2ccc(C)cc2)CCC1	2.31
COC(=O)C1(S(=O)(=O)c2ccc([N+](=O)[O-])cc2)CC1	1.33

The next lines start with the values.

logP	Structure (SMILES)
1.63	COC(=O)C1(S(=O)(=O)c2ccccc2)CCC1
1.77	COC(=O)C1(S(=O)(=O)c2ccc(C)cc2)CC1
3.16	CC(C)OC(=O)C1(S(=O)(=O)c2ccc(Cl)cc2)CCCC1
2.84	CC(C)OC(=O)C1(S(=O)(=O)c2ccc([N+](=O)[O-])cc2)CCCCC1
2.03	COC(=O)C1(S(=O)(=O)c2ccc(Cl)cc2)CC1
1.98	COC(=O)C1(S(=O)(=O)c2ccccc2)CCCC1
2.94	COC(=O)C1(S(=O)(=O)c2ccc(Br)cc2)CCCCC1
2.28	COC(=O)C1(S(=O)(=O)c2ccc(Cl)cc2)CCC1
2.45	COC(=O)C1(S(=O)(=O)c2ccc(Br)cc2)CCC1
2.3	COC(=O)C1(S(=O)(=O)c2ccccc2)CCCCC1
2.32	COC(=O)C1(S(=O)(=O)c2ccc(Br)cc2)CC1
2.73	COC(=O)C1(S(=O)(=O)c2ccc(Br)cc2)CCCC1
1.43	COC(=O)C1(S(=O)(=O)c2ccccc2)CC1
